Test results taken from ChEMBL document CHEMBL3580553, “Potent and Nontoxic Chemosensitizer of P-Glycoprotein-Mediated Multidrug Resistance in Cancer: Synthesis and Evaluation of Methylated Epigallocatechin, Gallocatechin, and Dihydromyricetin Derivatives” (J Med Chem, 2015).

Key:
[1] = Cytotoxicity against human LCC-6 cells after 3 days by MTS assay; assay type: functional, cell-based; settings: LCC-6, 72 h
[2] = target: ATP-dependent translocase ABCB1 (Homo sapiens, UniProt P08183); assay: Modulation of P-gp (unknown origin) transfected in human MDA435/LCC6MDR cells assessed as reversible of paclitaxel resistance measured as IC50 for paclitaxel at 1 uM after 5 days by CellTiter 96 Aqueous assay relative to PTX alone treated cell; assay type: cell-based; settings: 120 h
[3] = Selectivity index, ratio of IC50 for mouse […] cells to EC50 for modulation of P-gp (unknown origin) transfected in human MDA435/LCC6MDR cells assessed as reversing paclitaxel resistance; parameters: species or system L929
[4] = Cytotoxicity against human MDA435/LCC6MDR cells after 3 days by MTS assay; assay type: functional, cell-based; settings: 72 h
L929 = assay: Cytotoxicity against mouse L929 cells after 3 days by MTS assay; assay type: cell-based; settings: L929, 72 h
[5] = Modulation of P-gp (unknown origin) transfected in human MDA435/LCC6MDR cells assessed as reversible of paclitaxel resistance measured as IC50 for paclitaxel at 1 uM after 5 days by CellTiter 96 Aqueous assay

Chain of ATP-dependent translocase ABCB1 (P08183 whole entry): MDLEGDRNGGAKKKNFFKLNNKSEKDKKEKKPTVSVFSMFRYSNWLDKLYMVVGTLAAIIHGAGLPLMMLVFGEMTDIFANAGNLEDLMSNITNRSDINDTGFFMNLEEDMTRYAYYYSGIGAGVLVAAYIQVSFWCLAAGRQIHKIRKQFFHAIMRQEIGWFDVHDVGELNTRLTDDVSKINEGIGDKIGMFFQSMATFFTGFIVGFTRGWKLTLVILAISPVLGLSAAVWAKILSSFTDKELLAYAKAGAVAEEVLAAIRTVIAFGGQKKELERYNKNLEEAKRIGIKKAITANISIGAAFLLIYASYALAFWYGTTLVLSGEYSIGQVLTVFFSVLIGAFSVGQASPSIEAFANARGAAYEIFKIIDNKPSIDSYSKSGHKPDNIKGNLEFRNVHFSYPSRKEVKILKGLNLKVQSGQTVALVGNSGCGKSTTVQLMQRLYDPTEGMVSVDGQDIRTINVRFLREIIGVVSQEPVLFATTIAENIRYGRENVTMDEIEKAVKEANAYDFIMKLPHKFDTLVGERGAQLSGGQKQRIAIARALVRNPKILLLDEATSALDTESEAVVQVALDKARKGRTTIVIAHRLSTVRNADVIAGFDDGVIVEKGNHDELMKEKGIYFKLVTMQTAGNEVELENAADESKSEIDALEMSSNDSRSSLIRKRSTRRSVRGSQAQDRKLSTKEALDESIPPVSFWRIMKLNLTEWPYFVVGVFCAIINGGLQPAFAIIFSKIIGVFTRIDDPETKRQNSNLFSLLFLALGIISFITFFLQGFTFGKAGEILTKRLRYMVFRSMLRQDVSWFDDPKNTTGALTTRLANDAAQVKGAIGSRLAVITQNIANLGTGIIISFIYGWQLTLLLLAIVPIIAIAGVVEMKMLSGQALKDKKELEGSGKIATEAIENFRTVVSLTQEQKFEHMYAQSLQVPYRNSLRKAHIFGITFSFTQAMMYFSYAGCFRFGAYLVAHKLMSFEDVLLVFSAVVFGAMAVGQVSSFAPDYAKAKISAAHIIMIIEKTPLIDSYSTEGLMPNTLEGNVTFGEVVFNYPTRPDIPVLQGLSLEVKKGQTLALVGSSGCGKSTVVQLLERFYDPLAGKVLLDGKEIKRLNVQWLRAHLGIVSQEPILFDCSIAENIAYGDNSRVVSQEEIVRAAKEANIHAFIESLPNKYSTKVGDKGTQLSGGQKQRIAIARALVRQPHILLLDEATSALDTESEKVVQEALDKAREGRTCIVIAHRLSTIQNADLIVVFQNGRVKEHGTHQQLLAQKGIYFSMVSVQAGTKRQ

SMILES	Ratio [2]	IC50 [5] [µM]	IC50 [1] [µM]	Ratio IC50/EC50 [3]	IC50 [4] [µM]	IC50 (L929) [µM]
COc1cc(OC)c2c(c1)O[C@H](c1cc(OC)c(OC)c(OC)c1)[C@H](OC(=O)/C=C/c1ccc(OC)c(OC)c1)C2	16.6	–	> 100	>638	> 100	> 100
COc1cc(OC)c2c(c1)O[C@H](c1cc(OC)c(OC)c(OC)c1)[C@H](OC(=O)c1cc(OC)c(OC)c(OC)c1)C2	6.9	0.021	> 100	–	> 100	> 100
COc1ccc(C(=O)Nc2cc(C(=O)Nc3cc(C(=O)O[C@@H]4Cc5c(OC)cc(OC)cc5O[C@@H]4c4cc(OC)c(OC)c(OC)c4)ccc3F)ccc2F)cc1	9.2	0.0157	–	–	–	–
COc1cc(OC)c2c(c1)O[C@H](c1cc(OC)c(OC)c(OC)c1)[C@H](O)C2	0.9	0.1552	> 100	–	> 75	> 100

Continued, in another order:

Ratio [2]	IC50 [5] [µM]	SMILES	IC50 [1] [µM]	Ratio IC50/EC50 [3]	IC50 [4] [µM]	IC50 (L929) [µM]
21.9	–	COc1cc(OC)c2c(c1)O[C@H](c1cc(OC)c(OC)c(OC)c1)[C@@H](OC(=O)c1ccc(F)c(NC(=O)/C=C/c3ccc(OC)c(OC)c3)c1)C2	> 100	>357	> 100	> 100
17.9	0.0081	COc1cc(OC)c2c(c1)O[C@H](c1cc(OC)c(OC)c(OC)c1)[C@H](OC(=O)c1ccc(F)c(NC(=O)/C=C/c3ccc(OC)c(OC)c3)c1)C2	> 100	–	> 100	> 100
12.3	0.0118	COc1cc(OC)c2c(c1)O[C@H](c1cc(OC)c(OC)c(OC)c1)[C@@H](OC(=O)/C=C/c1ccc(OC)c(OC)c1)C2	> 100	–	> 100	> 100
34.4	0.0042	COc1cc(OC)c2c(c1)O[C@H](c1cc(OC)c(OC)c(OC)c1)[C@@H](OC(=O)c1ccc(F)c(NC(=O)/C=C/c3cc(OC)c(OC)c(OC)c3)c1)C2	> 100	>444	> 100	> 100
10	0.0144	COc1cc(OC)c2c(c1)O[C@H](c1cc(OC)c(OC)c(OC)c1)[C@@H](OC(=O)c1ccc(F)c(NC(=O)/C=C/c3ccc(OC)c(OC)c3)c1)C2=O	–	–	–	–
